Reference: patent US20260337245A1, “POLYPEPTIDE OR ANALOG THEREOF AND USE THEREOF” (Shenzhen Bay Laboratory, priority 2024, published 2026)
pEC50: −log10 of the molar value. Starred links: 1 amine or outer side, 2 acyl side, 3 side chain; linkers in the order of their positions; H or OH if unused. Positions of bridges follow the written chain, without caps; N, C: chain ends. Non-standard residues stand in square brackets, D forms with d. Residues, ends and D or L forms follow the SMILES beside them. X1 = O=C(O)CCCCCCCCCCCCCCCCCCC(=O)N[C@@H](CCCCNC(=O)COCCOCCNC(=O)COCCOCCNC(=O)CCC(=O)N(CCNC(=O)C[*:1])CCNC(=O)C[*:2])C(=O)O; NMeR = CN[C@@H](CCCNC(=N)N)C(=O)O; Hyp = O=C(O)[C@@H]1C[C@@H](O)CN1; αMeK = C[C@](N)(CCCCN)C(=O)O; Aib = CC(C)(N)C(=O)O

What was measured:
CTR = biological target: T1, CTR (Homo sapiens, UniProt P30988); assay: HTRF cAMP assay, CTR; type: cell-based; conditions: HEK293/pGM-CREB-L-Luc/CTR pool, read-out: IC50 of receptor CTR
T1 construct: expressed in transfected cells
T1 sequence (P30988 25-474): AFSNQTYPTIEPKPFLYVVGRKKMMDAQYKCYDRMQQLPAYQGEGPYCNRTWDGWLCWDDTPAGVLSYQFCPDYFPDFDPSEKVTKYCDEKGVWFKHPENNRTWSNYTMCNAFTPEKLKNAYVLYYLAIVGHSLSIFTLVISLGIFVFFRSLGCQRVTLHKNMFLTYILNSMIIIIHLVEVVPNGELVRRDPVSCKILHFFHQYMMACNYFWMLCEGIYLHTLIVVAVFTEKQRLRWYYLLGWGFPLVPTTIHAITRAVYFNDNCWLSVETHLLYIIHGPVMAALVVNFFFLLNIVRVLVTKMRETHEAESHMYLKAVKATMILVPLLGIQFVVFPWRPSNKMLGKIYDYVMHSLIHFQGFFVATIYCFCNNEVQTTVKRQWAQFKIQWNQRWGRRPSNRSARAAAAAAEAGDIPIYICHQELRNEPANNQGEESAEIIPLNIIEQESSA
Source text: (§1) 2. The polypeptide derivatives prepared in Example 1 and Example 2 of the present disclosure can bind to the target AMYR and CTR receptors on the cell membrane, activate the receptors and release cAMP. Therefore, the activity of the analyte can be determined by using an HTRF (homogeneous time-resolved fluorescence) method and using a cAMP detection kit. The specific steps were as follows:
(§2) A stable transfected cell line of HEK293/pGM-CREB-L-Luc/AMY3R pool and HEK293/pGM-CREB-L-Luc/CTR pool was constructed. The polypeptide derivatives (i.e., AMY-001 to AMY-041) prepared in Examples 1 and 2 were subjected to 5-fold serial dilution from a maximum of 1000 nM to prepare a dilution series containing 8 to 11 concentration gradients. Cagrilintide and sCT were selected as positive controls for testing, and a dilution series was prepared according to the same method for testing. The test cell lines were selected and treated with cAMP-specific trypsin for digestion, and then suspended with 3 mL of serum-free DMEM medium by pipetting, and the cells were counted. 5 μL of IBMX (prepared with serum-free DMEM medium, 0.5 mM) and test cells (5 μL/7500 cells/well) were sequentially added to a 384-well plate, incubated under the conditions of 37° C., 5% CO2 for 30 minutes, then added with cAMP-d2 (5 μL, 1×) and Anti-cAMP-Cryptate (5 μL, 1×) and placed at room temperature for 1 hour. A HTRF value was determined by a chemiluminescence microplate reader, and the results were recorded. An activation curve was plotted using GraphPad Prism software to calculate an IC50 value of each polypeptide derivative. […] The IC50 values of some polypeptides were exemplarily shown in this example, see Table 3, FIG. 2 and FIG. 3 for details.

[1] = Pharmacokinetic evaluation in SD rats; type: in vivo, male SD rat; conditions: plasma, rat
Experimental: 1. The pharmacokinetic behaviors of the polypeptide derivatives (i.e., AMY-001 to AMY-041) prepared in Example 1 and Example 2 in SD rats were tested.
Each polypeptide derivative (i.e., AMY-001 to AMY-041) was administered to male SD rat as a single injection via subcutaneous injection (SC, 3 mg/kg, with PBS as a medicament vehicle, a concentration of 1.5 mg/mL, and an administration volume of 2 mL) and intravenous injection (IV, 1 mg/kg, with PBS as a medicament vehicle, a concentration of 0.5 mg/mL, and an administration volume of 2 mL), respectively. After administration, whole blood samples were respectively collected from the jugular vein or other appropriate veins at selected time points. 0.2 mL of blood was collected and placed in a labeled EDTA-K2 anticoagulant tube. The tube was gently inverted up and down to ensure thorough mixing of the anticoagulant (EDTA-K2) with the blood, immediately placed on wet ice and centrifuged as soon as possible to separate plasma, and the centrifugation conditions were set to 4° C., 6800 g, and 6 minutes. Plasma samples were stored in a refrigerator at a temperature not exceeding −20° C. until subsequent analysis.
Under yellow light conditions in an ice water bath, (1) except for the blank sample, 300 μL of precipitant containing internal standard was added to a 96-well plate containing 20 μL of a standard curve sample, a quality control sample or an unknown sample; 300 μL of acetonitrile was added to the blank sample; (2) vortex mixing; (3) centrifugation; (4) 150 μL of supernatant was taken and added into a new 96-well plate, and then mixed well with 150 μL of ultrapure water; and (5) The above samples were quantitatively analyzed by using LC-MS analysis. Gradient elution was performed on a XB—C18 chromatographic column (2.1*100 mm, 3 μm), with the mobile phase as follows: mobile phase A=0.1% (volume percentage, v/v) formic acid-water; and mobile phase B=acetonitrile. Pharmacokinetic parameters were calculated using Phoenix WinNonlin software.

AMY3R = biological target: T2, AMY3R (Homo sapiens, UniProt P30988); assay: HTRF cAMP assay, AMY3R; type: cell-based; conditions: HEK293/pGM-CREB-L-Luc/AMY3R pool, read-out: IC50 of receptor AMY3R
T2 construct: expressed in transfected cells
T2 sequence (P30988 25-474): T1 sequence (P30988 25-474)
T2 sequence (O60896 24-148 partner): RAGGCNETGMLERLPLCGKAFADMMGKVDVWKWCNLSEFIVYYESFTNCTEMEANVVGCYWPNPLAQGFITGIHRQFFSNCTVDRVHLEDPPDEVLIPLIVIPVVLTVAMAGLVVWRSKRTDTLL
Source text: as §1, §2

pEC50 (CTR) | AUC(0-inf) ([1]; 1 mg/kg, IV (1 mpk)) [µg·h/mL] | clearance ([1]; 1 mg/kg, IV (1 mpk)) [mL/min/kg] | half-life ([1]; 1 mg/kg, IV (1 mpk)) [h] | AUC(0-inf) ([1]; 3 mg/kg, SC (3 mpk)) [µg·h/mL] | Cmax ([1]; 3 mg/kg, SC (3 mpk)) [ng/mL] | Tmax ([1]; 3 mg/kg, SC (3 mpk)) [h] | bioavailability ([1]; 3 mg/kg, SC (3 mpk)) [%] | half-life ([1]; 3 mg/kg, SC (3 mpk)) [h] | pEC50 (AMY3R) | SMILES
10.91 | 143 | 0.117 | 15.5 | 283 | 6830 | 8 | 65.9 | 15.6 | 11.32 | CC(=O)N[C@@H](C)C(=O)N[C@@H](CO)C(=O)N[C@@H](Cc1c[nH]cn1)C(=O)N[C@@H](CC(C)C)C(=O)N[C@@H](CO)C(=O)N[C@H](C(=O)N[C@@H](C)C(=O)N[C@H]1CSCC(=O)NCCN(C(=O)CCC(=O)NCCOCCOCC(=O)NCCOCCOCC(=O)NCCCC[C@H](NC(=O)CCCCCCCCCCCCCCCCCCC(=O)O)C(=O)O)CCNC(=O)CSC[C@@H](C(=O)N[C@@H](CC(C)C)C(=O)N[C@@H](Cc2c[nH]cn2)C(=O)N[C@@](C)(CCCCN)C(=O)N[C@@H](CC(C)C)C(=O)NC(C)(C)C(=O)N[C@@H](CC(=O)O)C(=O)N[C@@H](Cc2ccc(O)cc2)C(=O)N2CCC[C@H]2C(=O)N(C)[C@@H](CCCNC(=N)N)C(=O)N[C@H](C(=O)N[C@@H](CC(=O)O)C(=O)N[C@H](C(=O)NCC(=O)N[C@@H](C)C(=O)NCC(=O)N[C@@H](CO)C(=O)N2C[C@H](O)C[C@H]2C(N)=O)C(C)C)[C@@H](C)O)NC(=O)[C@H](C)NC(=O)[C@H](CO)NC(=O)[C@H](CC(C)C)NC(=O)[C@H](CCCNC(=N)N)NC(=O)CNC(=O)[C@H](CC(C)C)NC1=O)[C@@H](C)O [AMY-011, Ac-ASHLSTACLGRLSACLH-(αMeK)-L-Aib-DYP-(N-Me-R)-TDVGAGS-Hyp-NH2] (Ac-ASHLSTACLGRLSACLH[αMeK]L[Aib]DYP[NMeR]TDVGAGS[Hyp]-NH2; linker 8-15 via X1)
11.92 |  |  |  |  |  |  |  |  | 11.36 | CC(=O)N[C@@H](C)C(=O)N[C@@H](CO)C(=O)N[C@@H](Cc1c[nH]cn1)C(=O)N[C@@H](CC(C)C)C(=O)N[C@@H](CO)C(=O)N[C@H](C(=O)N[C@@H](C)C(=O)N[C@H]1CCCCNC(=O)CN(C(=O)CCCNC(=O)COCCOCCNC(=O)COCCOCCNC(=O)CC[C@H](NC(=O)CCCCCCCCCCCCCCCCCCC(=O)O)C(=O)O)CC(=O)NCCCC[C@@H](C(=O)N[C@@H](CC(C)C)C(=O)N[C@@H](Cc2c[nH]cn2)C(=O)N[C@@](C)(CCCCN)C(=O)N[C@@H](CC(C)C)C(=O)NC(C)(C)C(=O)N[C@@H](CC(=O)O)C(=O)N[C@@H](Cc2ccc(O)cc2)C(=O)N2CCC[C@H]2C(=O)N[C@@H](CCC(N)=O)C(=O)N[C@H](C(=O)N[C@@H](CC(=O)O)C(=O)N[C@H](C(=O)NCC(=O)N[C@@H](C)C(=O)NCC(=O)N[C@@H](CO)C(=O)N2C[C@H](O)C[C@H]2C(N)=O)C(C)C)[C@@H](C)O)NC(=O)[C@H](C)NC(=O)[C@H](CO)NC(=O)[C@H](CC(C)C)NC(=O)[C@H](CCCNC(=N)N)NC(=O)CNC(=O)[C@H](CC(C)C)NC1=O)[C@@H](C)O [AMY-021, Ac-ASHLSTAKLGRLSAKLH-(αMeK)-L-Aib-DYPQTDVGAGS-Hyp-NH2]
9.99 |  |  |  |  |  |  |  |  | 10.17 | CC(=O)N[C@@H](C)C(=O)N[C@@H](CO)C(=O)N[C@@H](Cc1c[nH]cn1)C(=O)N[C@@H](CC(C)C)C(=O)N[C@@H](CO)C(=O)N[C@H](C(=O)N[C@@H](C)C(=O)N[C@H](C(=O)N[C@@H](CC(C)C)C(=O)NCC(=O)N[C@H]1CCCCNC(=O)CN(C(=O)COCCOCCNC(=O)CC[C@H](NC(=O)CCCCCCCCCCCCCCCCCCC(=O)O)C(=O)O)CC(=O)NCCCC[C@@H](C(=O)N[C@@H](CC(C)C)C(=O)NC(C)(C)C(=O)N[C@@H](CC(=O)O)C(=O)N[C@@H](Cc2ccc(O)cc2)C(=O)N2CCC[C@H]2C(=O)N[C@@H](CCC(N)=O)C(=O)N[C@H](C(=O)N[C@@H](CC(=O)O)C(=O)N[C@H](C(=O)NCC(=O)N[C@@H](C)C(=O)NCC(=O)N[C@@H](CO)C(=O)N2C[C@H](O)C[C@H]2C(N)=O)C(C)C)[C@@H](C)O)NC(=O)[C@H](Cc2c[nH]cn2)NC(=O)[C@H](CC(C)C)NC(=O)[C@H](CCC(=O)O)NC(=O)[C@H](C)NC(=O)[C@H](CO)NC(=O)[C@H](CC(C)C)NC1=O)C(C)C)[C@@H](C)O [AMY-022, Ac-ASHLSTAVLGKLSAELHKL-Aib-DYPQTDVGAGS-Hyp-NH2]
